Laboratory results: US20130046025A1, “COMPOSITION WITH LOW SKIN IRRITATION FOR TRANSDERMAL DELIVERY OF TOLTERODINE” (SK Chemicals Co., Ltd., priority 2010, published 2013)

System: forearm skin of a test subject
Assay: Skin irritation test of patches (primary skin irritation index)
Assay type: in vivo
Details: for Effect on relief of skin irritation caused by tolterodine, result in words: conclusion from Table 4, essential oil in tolterodine patch
Procedure: Each of the patches produced in Production Examples 1 and 2 was cut to a size of 1 cm×1 cm. The specimen was attached to the forearm skin of a test subject and fixed with a medical tape to prevent detachment during the test period. After 24 hr, the medical tape and the patch were removed with care. After 1 hr, the primary skin irritation index of the patch for skin irritations including erythema and edema was determined with the help of an expert.
Skin irritation tests were conducted in the same manner as in Test Example 1.

SMILES	Skin irritation (erythema, edema), result in words (conclusion from Table 2)	Effect on relief of skin irritation caused by tolterodine, result in words
Cc1ccc(O)c([C@H](CCN(C(C)C)C(C)C)c2ccccc2)c1 [tolterodine, 2-[(1R)-3-(diisopropylamino)-1-phenylpropyl)-4-methylphenol]	causing skin irritations	
C=CCc1ccc(O)c(OC)c1 [eugenol]		outstanding effects on skin irritation relief
CC(C)=CCC[C@](C)(O)C1CC=C(C)CC1 (stereo partly drawn) [bisabolol]		outstanding effects on skin irritation relief
